Patent US20220281848A1, “PYRAZOLE-SUBSTITUTED PYRROLIDINONES AS HERBICIDES” (FMC Corporation, priority 2019, published 2022)

Test system: plants
Assay: Test D pre-emergence, other plants of Tables D1 and D3
Assay type: in vivo
Settings: for ALOMY damage rating / AVEFA damage rating / BEAVA damage rating / BROTE damage rating / BRSNN damage rating / CHEAL damage rating / GALAP damage rating / HORVW damage rating / KCHSC damage rating / LOLPE damage rating / POAAN damage rating / SINAR damage rating / STEME damage rating / VERPE damage rating / damage to plant, ALOMY / damage to plant, AVEFA / damage to plant, BEAVA / damage to plant, BROTE / damage to plant, BRSNN / damage to plant, HORVW / damage to plant, SINAR: pre-emergence, 100=total damage, 0=no damage; for ALOMY damage rating / AVEFA damage rating / BEAVA damage rating / BROTE damage rating / BRSNN damage rating / CHEAL damage rating / GALAP damage rating / HORVW damage rating / KCHSC damage rating / LOLPE damage rating / POAAN damage rating / SINAR damage rating / STEME damage rating / VERPE damage rating: 20 DAA; for ABUTH damage to plant (100=total damage; 0=no damage) / AMARE damage to plant (100=total damage; 0=no damage) / BIDPI damage to plant (100=total damage; 0=no damage) / BRAPL damage to plant (100=total damage; 0=no damage) / CYPES damage to plant (100=total damage; 0=no damage) / DIGSA damage to plant (100=total damage; 0=no damage) / ECHCG damage to plant (100=total damage; 0=no damage) / EPHHL damage to plant (100=total damage; 0=no damage) / GLXMA damage to plant (100=total damage; 0=no damage) / IPOHE damage to plant (100=total damage; 0=no damage) / ORYSA damage to plant (100=total damage; 0=no damage) / PANMI damage to plant (100=total damage; 0=no damage) / SETFA damage to plant (100=total damage; 0=no damage) / SORVU damage to plant (100=total damage; 0=no damage): preemergent
Method in brief: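 Seeds treated with herbicide safener; sown in soil; glasshouse, 16 h light, 65% humidity. Sprayed day 1 (pre) or ~day 12 (post). Spray in 0.2% v/v adjuvant. Scored 0–100 damage: 20 DAA pre, 15 d post.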

## CN1CC(c2cc(Cl)n(C)n2)C(C(=O)Nc2ccc(F)c(F)c2F)C1=O (racemic) [Compound 31]
Rates 15
  ALOMY damage rating: 0
  AVEFA damage rating: 0
  BEAVA damage rating: 0
  BROTE damage rating: 0
  BRSNN damage rating: 0
  CHEAL damage rating: 0
  GALAP damage rating: 0
  HORVW damage rating: 0
  KCHSC damage rating: 0
  LOLPE damage rating: 0
  POAAN damage rating: 0
  SINAR damage rating: 0
  STEME damage rating: 0
  VERPE damage rating: 0
Rates 30
  ALOMY damage rating: 0
  AVEFA damage rating: 0
  BEAVA damage rating: 0
  BROTE damage rating: 0
  BRSNN damage rating: 0
  CHEAL damage rating: 0
  GALAP damage rating: 0
  HORVW damage rating: 0
  KCHSC damage rating: 0
  LOLPE damage rating: 0
  POAAN damage rating: 0
  SINAR damage rating: 0
  STEME damage rating: 0
  VERPE damage rating: 0
Rates 60
  CHEAL damage rating: 0
  GALAP damage rating: 0
  KCHSC damage rating: 0
  LOLPE damage rating: 0
  POAAN damage rating: 0
  STEME damage rating: 0
  VERPE damage rating: 0
Rates 130
  CHEAL damage rating: 0
  GALAP damage rating: 0
  KCHSC damage rating: 0
  LOLPE damage rating: 0
  POAAN damage rating: 0
  STEME damage rating: 0
  VERPE damage rating: 0
Rates 250
  CHEAL damage rating: 0
  GALAP damage rating: 0
  KCHSC damage rating: 0
  LOLPE damage rating: 0
  POAAN damage rating: 0
  STEME damage rating: 0
  VERPE damage rating: 30
Rates 500
  CHEAL damage rating: 20
  GALAP damage rating: 0
  KCHSC damage rating: 0
  LOLPE damage rating: 0
  POAAN damage rating: 10
  STEME damage rating: 10
  VERPE damage rating: 50
Rate 60, 20 DAA
  damage to plant, ALOMY: 0
  damage to plant, AVEFA: 0
  damage to plant, BEAVA: 0
  damage to plant, BROTE: 0
  damage to plant, BRSNN: 0
  damage to plant, HORVW: 0
  damage to plant, SINAR: 0
Rate 130, 20 DAA
  damage to plant, ALOMY: 0
  damage to plant, AVEFA: 0
  damage to plant, BEAVA: 0
  damage to plant, BROTE: 0
  damage to plant, BRSNN: 0
  damage to plant, HORVW: 0
  damage to plant, SINAR: 0
Rate 250, 20 DAA
  damage to plant, ALOMY: 0
  damage to plant, AVEFA: 0
  damage to plant, BEAVA: 0
  damage to plant, BROTE: 0
  damage to plant, BRSNN: 0
  damage to plant, HORVW: 0
  damage to plant, SINAR: 0
Rate 500, 20 DAA
  damage to plant, ALOMY: 0
  damage to plant, AVEFA: 10
  damage to plant, BEAVA: 0
  damage to plant, BROTE: 10
  damage to plant, BRSNN: 0
  damage to plant, HORVW: 20
  damage to plant, SINAR: 20
Rates 15, 20 DAA
  ABUTH damage to plant (100=total damage; 0=no damage): 0
  AMARE damage to plant (100=total damage; 0=no damage): 0
  BIDPI damage to plant (100=total damage; 0=no damage): 0
  BRAPL damage to plant (100=total damage; 0=no damage): 0
  CYPES damage to plant (100=total damage; 0=no damage): 0
  DIGSA damage to plant (100=total damage; 0=no damage): 0
  ECHCG damage to plant (100=total damage; 0=no damage): 0
  EPHHL damage to plant (100=total damage; 0=no damage): 0
  GLXMA damage to plant (100=total damage; 0=no damage): 0
  IPOHE damage to plant (100=total damage; 0=no damage): 0
  ORYSA damage to plant (100=total damage; 0=no damage): 0
  PANMI damage to plant (100=total damage; 0=no damage): 0
  SETFA damage to plant (100=total damage; 0=no damage): 0
  SORVU damage to plant (100=total damage; 0=no damage): 0
Rates 30, 20 DAA
  ABUTH damage to plant (100=total damage; 0=no damage): 0
  AMARE damage to plant (100=total damage; 0=no damage): 0
  BIDPI damage to plant (100=total damage; 0=no damage): 0
  BRAPL damage to plant (100=total damage; 0=no damage): 10
  CYPES damage to plant (100=total damage; 0=no damage): 0
  DIGSA damage to plant (100=total damage; 0=no damage): 10
  ECHCG damage to plant (100=total damage; 0=no damage): 0
  EPHHL damage to plant (100=total damage; 0=no damage): 0
  GLXMA damage to plant (100=total damage; 0=no damage): 0
  IPOHE damage to plant (100=total damage; 0=no damage): 0
  ORYSA damage to plant (100=total damage; 0=no damage): 0
  PANMI damage to plant (100=total damage; 0=no damage): 0
  SETFA damage to plant (100=total damage; 0=no damage): 0
  SORVU damage to plant (100=total damage; 0=no damage): 0
Rates 60, 20 DAA
  ABUTH damage to plant (100=total damage; 0=no damage): 0
  AMARE damage to plant (100=total damage; 0=no damage): 0
  BIDPI damage to plant (100=total damage; 0=no damage): 0
  BRAPL damage to plant (100=total damage; 0=no damage): 60
  CYPES damage to plant (100=total damage; 0=no damage): 0
  DIGSA damage to plant (100=total damage; 0=no damage): 50
  ECHCG damage to plant (100=total damage; 0=no damage): 30
  EPHHL damage to plant (100=total damage; 0=no damage): 0
  GLXMA damage to plant (100=total damage; 0=no damage): 0
  IPOHE damage to plant (100=total damage; 0=no damage): 0
  ORYSA damage to plant (100=total damage; 0=no damage): 0
  PANMI damage to plant (100=total damage; 0=no damage): 0
  SETFA damage to plant (100=total damage; 0=no damage): 10
  SORVU damage to plant (100=total damage; 0=no damage): 0
Rates 130, 20 DAA
  ABUTH damage to plant (100=total damage; 0=no damage): 0
  AMARE damage to plant (100=total damage; 0=no damage): 0
  BIDPI damage to plant (100=total damage; 0=no damage): 0
  BRAPL damage to plant (100=total damage; 0=no damage): 80
  CYPES damage to plant (100=total damage; 0=no damage): 0
  DIGSA damage to plant (100=total damage; 0=no damage): 90
  ECHCG damage to plant (100=total damage; 0=no damage): 30
  EPHHL damage to plant (100=total damage; 0=no damage): 0
  GLXMA damage to plant (100=total damage; 0=no damage): 0
  IPOHE damage to plant (100=total damage; 0=no damage): 0
  ORYSA damage to plant (100=total damage; 0=no damage): 0
  PANMI damage to plant (100=total damage; 0=no damage): 0
  SETFA damage to plant (100=total damage; 0=no damage): 30
  SORVU damage to plant (100=total damage; 0=no damage): 0
Rates 250, 20 DAA
  ABUTH damage to plant (100=total damage; 0=no damage): 0
  AMARE damage to plant (100=total damage; 0=no damage): 0
  BIDPI damage to plant (100=total damage; 0=no damage): 0
  BRAPL damage to plant (100=total damage; 0=no damage): 80
  CYPES damage to plant (100=total damage; 0=no damage): 0
  DIGSA damage to plant (100=total damage; 0=no damage): 90
  ECHCG damage to plant (100=total damage; 0=no damage): 80
  EPHHL damage to plant (100=total damage; 0=no damage): 0
  GLXMA damage to plant (100=total damage; 0=no damage): 0
  IPOHE damage to plant (100=total damage; 0=no damage): 0
  ORYSA damage to plant (100=total damage; 0=no damage): 0
  PANMI damage to plant (100=total damage; 0=no damage): 0
  SETFA damage to plant (100=total damage; 0=no damage): 20
  SORVU damage to plant (100=total damage; 0=no damage): 0
Rates 500, 20 DAA
  ABUTH damage to plant (100=total damage; 0=no damage): 0
  AMARE damage to plant (100=total damage; 0=no damage): 0
  BIDPI damage to plant (100=total damage; 0=no damage): 0
  BRAPL damage to plant (100=total damage; 0=no damage): 90
  CYPES damage to plant (100=total damage; 0=no damage): 0
  DIGSA damage to plant (100=total damage; 0=no damage): 90
  ECHCG damage to plant (100=total damage; 0=no damage): 90
  EPHHL damage to plant (100=total damage; 0=no damage): 0
  GLXMA damage to plant (100=total damage; 0=no damage): 0
  IPOHE damage to plant (100=total damage; 0=no damage): 0
  ORYSA damage to plant (100=total damage; 0=no damage): 0
  PANMI damage to plant (100=total damage; 0=no damage): 0
  SETFA damage to plant (100=total damage; 0=no damage): 90
  SORVU damage to plant (100=total damage; 0=no damage): 0
